Reference: patent publication US20100003217A1, “Compounds and Pharmaceutical Compositions for the Treatment of Viral Infections” (priority 2008, published 2010)

Key:
[1] = system: S282T HCV replicon (184R-A cells); assay: microbe, parasite or virus in culture
Experimental: 3. The 184R-A cell line was derived by culturing wild-type replicon cells in the presence of 1 to 5 μM of Compound 1 for >100 days.
1. […] Huh-7 cells were seeded into column 1 of each plate at a similar density.
2. […] Eight additional 3-fold serial dilutions of each compound were prepared from the 2× stock in assay medium. Final drug concentrations ranged from 100 to 0.015 μM.
3. […] This setup was run in duplicate in each 96-well plate.
4. Cells were incubated with inhibitors for three days at 37° C./5% CO2.
1. After three days of drug treatment, media was removed from the plates via gentle tapping and the cells were fixed to the plates with 100 μL/well of 1:1 acetone:methanol.
2. After one minute of incubation at room temperature, plates were washed three times with 100 μL/well of ELISA wash solution and then blocked with 150 μL/well of 10% FBS-TNE.
3. After a one hour incubation at room temperature, plates were washed three times with 100 μL/well of ELISA wash solution, and then 100 μL/well of mouse anti-hepatitis C […] mAb (1 mg/mL stock diluted 1:1,500 in 10% FBS-TNE) was added.
4. Following 2 hours of incubation at 37° C., plates were washed three times with 100 μL/well of ELISA wash solution, and then 100 μL/well of HRP-goat anti-mouse antibody (diluted 1:4,000 in 10% FBS-TNE) was added.
4. After a one hour incubation period at 37° C., each plate was washed three times with 100 μL/well of ELISA wash solution. Color development was then initiated with 100 μL/well of OPD solution.
5. After a 30 minute incubation period in the dark at room temperature, reactions were stopped by adding 100 μL of 2NH2SO4 to each well.
6. The absorbance was measured at 490 nm on a Victor^3 V 1420 multilabel counter (Perkin Elmer). The percent inhibition of HCV replicon replication was calculated for each drug using an average of the duplicate wells.

[2] = Cytotoxicity (MTS assay), 184R-A cells; assay type: cell-based; conditions: human, 184R-A cells (S282T), 184R-A (S282T), N = 3
Experimental: Cells were plated and treated with inhibitors as described above.

[3] = target: CYP2C9 (Homo sapiens, UniProt P11712); assay: Incubation with human recombinant CYP450 supersomes, 2C9; assay type: in vitro ADME; conditions: CYP450 2C9 supersomes, 60 min, 10 μM, average of two experiments
Experimental: (§1) Supersomes—Incubations were conducted in a final volume of 0.1 mL reaction buffer (50-100 mM potassium phosphate, pH 7.4 or 100 mM Tris-HCL, pH 7.4) according to protocol provided with each CYP450 supersome. Each reaction contained […] of CYP450 supersome, 1.3 mM NADP^+, 3.3 mM glucose-6-phosphate, 0.4 U/mL glucose-6-phosphate dehydrogenase, 3.3 mM MgCl2 and 10 μM Compound 1. Following incubation for 60 min at 37° C., 100 μL of stop solution (acetonitrile:methanol; 1:1) was added and samples centrifuged for 10 min at 10,000×g. The supernatant was then dried and reconstituted in 10 mM potassium phosphate, pH 5, further transferred to an HPLC glass vial and analyzed by HPLC-UV (described above).

[4] = target: CYP3A4 (Homo sapiens, UniProt P08684); assay: Incubation with human recombinant CYP450 supersomes, 3A4; assay type: in vitro ADME; conditions: CYP450 3A4 supersomes, 60 min, 10 μM, average of two experiments
Experimental: as §1

[5] = Radiochemical purity of the test article in dose formulations before and after dosing; assay type: physicochemical; conditions: PEG 200 with 5% DMSO
Experimental: Two dose formulations (50 mg/mL for the IV dose Groups 1A-C and 100 mg/mL for the PO dose Groups 2A-C) were prepared in PEG 200 containing 5% DMSO. Subsamples of the dose formulations were removed before and after the dose administration. An aliquot (10 μL) of each subsample was diluted by adding methanol (490 μL) and 20 mM ammonium formate in water (1500 μL). The diluted dose formulations were analyzed for determination of radiochemical purity by HPLC method 1.
Two dose formulations (50 mg/kg for the IV dose Groups 1A-C and 100 mg/kg for the PO dose Groups 2A-C) were prepared by the following procedure. Both formulations were prepared in PEG 200 containing 5% DMSO. The required amount of radioactive material was weighed and ground to a fine powder with a spatula. 30% of the final volume of PEG 200 and the weighed test article was added to a formulation vial while stirring under magnetic agitation to obtain a uniform formulation. The final volume was made up with PEG 200. The formulation was sonicated at room temperature for 15 minutes or longer to obtain homogenous suspension. The cycles of sonication/agitation were continued until the formulation was homogeneous. Triplicate aliquots were removed for determination of homogeneity (CV). The radioactivity concentration of the formulation was determined and specific activity was calculated.
The dose aliquots were analyzed by HPLC method 1 after diluting 10 μL of each formulation with 490 μL of methanol and 1.5 mL of the aqueous mobile phase.

[6] = target: CYP2B6 (Homo sapiens, UniProt P20813); assay: Incubation with human recombinant CYP450 supersomes, 2B6; assay type: in vitro ADME; conditions: CYP450 2B6 supersomes, 60 min, 10 μM, average of two experiments
Experimental: as §1

[7] = system: GS4.1 cells; assay: Cytotoxicity of Compound 1 and RBV on GS4.1 cells using MTS assay (combination study); conditions: three days, 0.6× to 1.5× EC50, alone or in combination
Experimental: The readout of the assay was measured by the bioreduction of the yellow MTS tetrazolium compound to a purple formazan product. This conversion is mediated by NADPH or NADH in metabolically active cells and is therefore directly proportional to the number of live cells in a culture. Plates were setup as described above.
Cells were plated and treated with inhibitors using the drug matrix described above.
After three days of drug treatment, 20 μL of MTS was added to each well, and then plates were incubated at 37° C./5% CO2.

[8] = target: CYP2C8 (Homo sapiens, UniProt P10632); assay: Incubation with human recombinant CYP450 supersomes, 2C8; assay type: in vitro ADME; conditions: CYP450 2C8 supersomes, 60 min, 10 μM, average of two experiments
Experimental: as §1

Chain of CYP2C9 (P11712 whole entry): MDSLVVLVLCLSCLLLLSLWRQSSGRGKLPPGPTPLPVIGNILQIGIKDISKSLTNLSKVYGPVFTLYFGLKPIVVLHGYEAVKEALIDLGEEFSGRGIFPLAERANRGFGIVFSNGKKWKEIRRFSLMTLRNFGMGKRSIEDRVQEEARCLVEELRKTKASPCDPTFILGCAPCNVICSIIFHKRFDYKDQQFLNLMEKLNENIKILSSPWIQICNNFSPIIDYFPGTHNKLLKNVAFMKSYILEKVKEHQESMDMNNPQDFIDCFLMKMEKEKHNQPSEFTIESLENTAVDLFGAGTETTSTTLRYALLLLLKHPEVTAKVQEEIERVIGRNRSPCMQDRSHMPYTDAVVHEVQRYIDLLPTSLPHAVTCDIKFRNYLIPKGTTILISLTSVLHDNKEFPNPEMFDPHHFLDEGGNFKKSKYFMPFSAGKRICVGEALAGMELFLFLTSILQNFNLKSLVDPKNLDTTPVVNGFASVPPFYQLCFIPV
Chain of CYP3A4 (P08684 whole entry): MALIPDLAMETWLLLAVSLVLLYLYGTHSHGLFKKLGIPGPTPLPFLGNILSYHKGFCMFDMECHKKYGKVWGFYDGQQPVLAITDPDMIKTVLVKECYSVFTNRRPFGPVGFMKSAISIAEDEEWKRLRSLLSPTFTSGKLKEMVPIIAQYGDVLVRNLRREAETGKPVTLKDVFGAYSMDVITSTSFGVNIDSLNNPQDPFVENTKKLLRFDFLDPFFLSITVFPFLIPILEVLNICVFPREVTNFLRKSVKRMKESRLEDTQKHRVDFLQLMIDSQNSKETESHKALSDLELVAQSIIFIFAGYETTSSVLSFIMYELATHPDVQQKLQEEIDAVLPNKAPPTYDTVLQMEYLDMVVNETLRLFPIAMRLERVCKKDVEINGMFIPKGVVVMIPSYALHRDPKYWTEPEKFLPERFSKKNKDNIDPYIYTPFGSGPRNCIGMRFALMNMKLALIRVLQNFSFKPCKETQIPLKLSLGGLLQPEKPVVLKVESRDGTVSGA
Chain of CYP2C8 (P10632 whole entry): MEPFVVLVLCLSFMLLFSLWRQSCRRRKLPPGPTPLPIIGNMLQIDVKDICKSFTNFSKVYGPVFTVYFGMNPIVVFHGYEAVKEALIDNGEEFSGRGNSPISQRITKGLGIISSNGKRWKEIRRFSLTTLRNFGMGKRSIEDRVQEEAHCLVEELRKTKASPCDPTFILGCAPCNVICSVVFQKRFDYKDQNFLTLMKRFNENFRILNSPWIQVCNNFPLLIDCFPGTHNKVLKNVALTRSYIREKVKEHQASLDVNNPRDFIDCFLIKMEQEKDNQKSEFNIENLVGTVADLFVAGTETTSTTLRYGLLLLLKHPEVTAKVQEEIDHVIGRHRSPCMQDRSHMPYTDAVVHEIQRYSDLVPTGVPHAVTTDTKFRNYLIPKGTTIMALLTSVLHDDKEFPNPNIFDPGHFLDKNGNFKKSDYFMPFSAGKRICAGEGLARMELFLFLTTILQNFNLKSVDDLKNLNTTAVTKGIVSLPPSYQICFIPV
Chain of CYP2B6 (P20813 whole entry): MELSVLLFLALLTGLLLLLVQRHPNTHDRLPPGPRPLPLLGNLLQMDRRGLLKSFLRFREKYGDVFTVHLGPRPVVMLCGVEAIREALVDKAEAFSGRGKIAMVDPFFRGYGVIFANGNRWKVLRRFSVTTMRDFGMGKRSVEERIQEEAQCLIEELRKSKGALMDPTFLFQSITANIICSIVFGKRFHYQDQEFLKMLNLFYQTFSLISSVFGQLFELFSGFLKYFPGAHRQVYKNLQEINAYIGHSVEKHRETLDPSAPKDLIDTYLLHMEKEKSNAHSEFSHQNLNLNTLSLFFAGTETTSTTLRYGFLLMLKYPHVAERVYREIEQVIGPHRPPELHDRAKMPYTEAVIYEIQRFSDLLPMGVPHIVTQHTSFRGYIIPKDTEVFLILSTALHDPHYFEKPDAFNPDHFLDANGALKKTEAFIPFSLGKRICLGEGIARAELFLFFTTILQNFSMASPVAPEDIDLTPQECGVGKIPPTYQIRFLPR

## CC(C)(CO)C(=O)SCCOP(=O)(NCc1ccccc1)OC[C@H]1O[C@@H](n2cnc3c(=O)[nH]c(N)nc32)[C@](C)(O)[C@@H]1O (mixture of isomers) [Compound 1, 3-hydroxy-2,2-dimethyl-thiopropionic acid S-(2-{[(2R,3R,4R,5R)-5-(2-amino-6-oxo-1,6-dihydro-purin-9-yl)-3,4-dihydroxy-4-methyl-tetrahydro-furan-2-ylmethoxy]-benzylamino-phosphoryloxy}-ethyl) ester]
[1]; 184R-A (S282T), EC50 in resistant line divided by EC50 in wild-type cells
  Fold shift from wild-type: 30 fold
[1]; Hepatitis C virus
  EC50: 9 µM
[2]
  CC50 at 3 days: > 100 µM
[3]
  % Residual Compound 1: 109%
[4]
  % Residual Compound 1: 62%
[5]; IV formulation, Groups 1A-C, Postdose
  Radiochemical Purity of the test article in dose formulation (total of two isomers): 99.1%
[5]; IV formulation, Groups 1A-C, Predose
  Radiochemical Purity of the test article in dose formulation (total of two isomers): 99.0%
[5]; PO formulation, Groups 2A-C, Postdose
  Radiochemical Purity of the test article in dose formulation (total of two isomers): 98.9%
[5]; PO formulation, Groups 2A-C, Predose
  Radiochemical Purity of the test article in dose formulation (total of two isomers): 98.6%
[6]
  % Residual Compound 1: 108%
[7]
  in vitro cytotoxicity (MTS): no evidence of in vitro cytotoxicity
[8]
  % Residual Compound 1: 105%
